From ChEMBL document CHEMBL1201862, “PubChem BioAssay data set” (2004)
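Results reflect a 48-hour exposure of cells in 96-well plates to compound at five concentrations. GI50 = concentration required for 50% inhibition of growth.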 Activity calls are given as the source filed them. No stated cut-off is given here; in the data, active = GI50 up to about 1.1 µM and inactive = higher.

Assays:
Experiment in all cases: NCI-60 cell line screen, 48 h
786-0 = system: 786-0
A498 = system: A498
A549 = system: A549
ACHN = system: ACHN
CAKI-1 = system: CAKI-1
CCRF-CEM = system: CCRF-CEM
COLO 205 = system: COLO 205
DU-145 = system: DU-145
EKVX = system: EKVX
HCC 2998 = system: HCC 2998
HCT-116 = system: HCT-116
HCT-15 = system: HCT-15
HL-60 = system: HL-60
HOP-62 = system: HOP-62
HOP-92 = system: HOP-92
HT-29 = system: HT-29
Hs-578T = system: Hs-578T
IGROV-1 = system: IGROV-1
K562 = system: K562
KM12 = system: KM12
LOX IMVI = system: LOX IMVI
M14 = system: M14
MCF7 = system: MCF7
MDA-MB-231 = system: MDA-MB-231
MDA-MB-435 = system: MDA-MB-435
MDA-N = system: MDA-N
MOLT-4 = system: MOLT-4
Malme-3M = system: Malme-3M
NCI-H226 = system: NCI-H226
NCI-H23 = system: NCI-H23
NCI-H460 = system: NCI-H460
NCI/ADR-RES = system: NCI/ADR-RES
OVCAR-3 = system: OVCAR-3
OVCAR-4 = system: OVCAR-4
OVCAR-5 = system: OVCAR-5
OVCAR-8 = system: OVCAR-8
PC-3 = system: PC-3
RPMI-8226 = system: RPMI-8226
RXF 393 = system: RXF 393
SF-268 = system: SF-268
SF-295 = system: SF-295
SF-539 = system: SF-539
SK-MEL-28 = system: SK-MEL-28
SK-MEL-2 = system: SK-MEL-2
SK-OV-3 = system: SK-OV-3
SN12C = system: SN12C
SNB-19 = system: SNB-19
SNB-75 = system: SNB-75
SR = system: SR
SW-620 = system: SW-620
T47D = system: T47D
TK-10 = system: TK-10
U-251 = system: U-251
UACC-257 = system: UACC-257
UACC-62 = system: UACC-62
UO-31 = system: UO-31
NCI-H522 = system: NCI-H522
SK-MEL-5 = system: SK-MEL-5

SMILES: N=c1c2c(ncn1N)Oc1c(c(-c3ccccc3)nn1-c1ccccc1)C2c1ccc(Cl)cc1 (centres undefined)
- GI50 (786-0): 1.63 µM (inactive)
- GI50 (A498): 1.86 µM (inactive)
- GI50 (A549): 1.82 µM (inactive)
- GI50 (ACHN): 2.04 µM (inactive)
- GI50 (CAKI-1): 2.1 µM (inactive)
- GI50 (CCRF-CEM): 2.47 µM (inactive)
- GI50 (COLO 205): 0.508 µM (active)
- GI50 (DU-145): 2.01 µM (inactive)
- GI50 (EKVX): 1.82 µM (inactive)
- GI50 (HCC 2998): 0.762 µM (active)
- GI50 (HCT-116): 1.49 µM (inactive)
- GI50 (HCT-15): 1.31 µM
- GI50 (HL-60): 0.408 µM (active)
- GI50 (HOP-62): 1.66 µM (inactive)
- GI50 (HOP-92): 1.71 µM (inactive)
- GI50 (HT-29): 1.39 µM (inactive)
- GI50 (Hs-578T): 1.64 µM (inactive)
- GI50 (IGROV-1): 1.43 µM (inactive)
- GI50 (K562): 0.731 µM (active)
- GI50 (KM12): 1.6 µM (inactive)
- GI50 (LOX IMVI): 1.48 µM (inactive)
- GI50 (M14): 1.56 µM (inactive)
- GI50 (MCF7): 1.44 µM (inactive)
- GI50 (MDA-MB-231): 2.63 µM (inactive)
- GI50 (MDA-MB-435): 1.62 µM (inactive)
- GI50 (MDA-N): 1.82 µM (inactive)
- GI50 (MOLT-4): 0.895 µM (active)
- GI50 (Malme-3M): 1.61 µM (inactive)
- GI50 (NCI-H226): 1.98 µM (inactive)
- GI50 (NCI-H23): 1.87 µM (inactive)
- GI50 (NCI-H460): 1.42 µM (inactive)
- GI50 (NCI/ADR-RES): 1.68 µM (inactive)
- GI50 (OVCAR-3): 1.56 µM (inactive)
- GI50 (OVCAR-4): 1.56 µM (inactive)
- GI50 (OVCAR-5): 1.5 µM (inactive)
- GI50 (OVCAR-8): 1.95 µM (inactive)
- GI50 (PC-3): 1.63 µM (inactive)
- GI50 (RPMI-8226): 2.35 µM (inactive)
- GI50 (RXF 393): 1.47 µM (inactive)
- GI50 (SF-268): 1.71 µM (inactive)
- GI50 (SF-295): 1.66 µM (inactive)
- GI50 (SF-539): 1.18 µM (inactive)
- GI50 (SK-MEL-28): 1.76 µM (inactive)
- GI50 (SK-MEL-2): 1.69 µM (inactive)
- GI50 (SK-OV-3): 1.85 µM (inactive)
- GI50 (SN12C): 1.79 µM (inactive)
- GI50 (SNB-19): 1.47 µM (inactive)
- GI50 (SNB-75): 1.5 µM (inactive)
- GI50 (SR): 0.918 µM (active)
- GI50 (SW-620): 1.75 µM (inactive)
- GI50 (T47D): 2.3 µM (inactive)
- GI50 (TK-10): 1.76 µM (inactive)
- GI50 (U-251): 1.65 µM (inactive)
- GI50 (UACC-257): 1.76 µM (inactive)
- GI50 (UACC-62): 1.54 µM (inactive)
- GI50 (UO-31): 1.64 µM (inactive)

SMILES: O=c1[nH]nc(Cc2ccc(Cl)cc2)n1/N=C/c1c[nH]c2ccccc12
- GI50 (786-0): > 100 µM (inactive)
- GI50 (A498): > 100 µM (inactive)
- GI50 (A549): > 100 µM (inactive)
- GI50 (ACHN): > 100 µM (inactive)
- GI50 (CAKI-1): > 100 µM (inactive)
- GI50 (CCRF-CEM): > 100 µM (inactive)
- GI50 (DU-145): > 100 µM (inactive)
- GI50 (EKVX): > 100 µM (inactive)
- GI50 (HCC 2998): > 100 µM (inactive)
- GI50 (HCT-116): > 100 µM (inactive)
- GI50 (HCT-15): > 100 µM
- GI50 (HL-60): > 100 µM (inactive)
- GI50 (HOP-62): > 100 µM (inactive)
- GI50 (HOP-92): > 100 µM (inactive)
- GI50 (HT-29): > 100 µM (inactive)
- GI50 (Hs-578T): > 100 µM (inactive)
- GI50 (IGROV-1): > 100 µM (inactive)
- GI50 (K562): > 100 µM (inactive)
- GI50 (KM12): > 100 µM (inactive)
- GI50 (LOX IMVI): > 100 µM (inactive)
- GI50 (M14): > 100 µM (inactive)
- GI50 (MCF7): > 100 µM (inactive)
- GI50 (MDA-MB-231): > 100 µM (inactive)
- GI50 (MDA-MB-435): > 100 µM (inactive)
- GI50 (MDA-N): > 100 µM (inactive)
- GI50 (MOLT-4): > 100 µM (inactive)
- GI50 (Malme-3M): > 100 µM (inactive)
- GI50 (NCI-H226): > 100 µM (inactive)
- GI50 (NCI-H23): > 100 µM (inactive)
- GI50 (NCI-H460): > 100 µM (inactive)
- GI50 (NCI-H522): > 100 µM (inactive)
- GI50 (NCI/ADR-RES): 82.8 µM (inactive)
- GI50 (OVCAR-3): > 100 µM (inactive)
- GI50 (OVCAR-4): > 100 µM (inactive)
- GI50 (OVCAR-5): > 100 µM (inactive)
- GI50 (OVCAR-8): > 100 µM (inactive)
- GI50 (PC-3): > 100 µM (inactive)
- GI50 (RPMI-8226): 26.3 µM (inactive)
- GI50 (SF-268): > 100 µM (inactive)
- GI50 (SF-295): > 100 µM (inactive)
- GI50 (SF-539): > 100 µM (inactive)
- GI50 (SK-MEL-28): > 100 µM (inactive)
- GI50 (SK-MEL-2): > 100 µM (inactive)
- GI50 (SK-MEL-5): > 100 µM (inactive)
- GI50 (SK-OV-3): > 100 µM (inactive)
- GI50 (SN12C): > 100 µM (inactive)
- GI50 (SNB-19): > 100 µM (inactive)
- GI50 (SNB-75): > 100 µM (inactive)
- GI50 (SR): > 100 µM (inactive)
- GI50 (SW-620): > 100 µM (inactive)
- GI50 (T47D): > 100 µM (inactive)
- GI50 (TK-10): > 100 µM (inactive)
- GI50 (U-251): > 100 µM (inactive)
- GI50 (UACC-257): > 100 µM (inactive)
- GI50 (UACC-62): > 100 µM (inactive)
- GI50 (UO-31): > 100 µM (inactive)

SMILES: NS(=O)(=O)c1ccc(/C=C/c2cccc(O)c2)cc1
- GI50 (786-0): > 100 µM (inactive)
- GI50 (A498): 59.6 µM (inactive)
- GI50 (COLO 205): 20 µM (inactive)
- GI50 (DU-145): 47.8 µM (inactive)
- GI50 (EKVX): 55.1 µM (inactive)
- GI50 (HCC 2998): 77.4 µM (inactive)
- GI50 (HCT-116): 35.9 µM (inactive)
- GI50 (HOP-62): > 100 µM (inactive)
- GI50 (M14): 55.6 µM (inactive)
- GI50 (MCF7): 38.9 µM (inactive)
- GI50 (MDA-MB-231): 38 µM (inactive)
- GI50 (MDA-N): 36.5 µM (inactive)
- GI50 (Malme-3M): 75.3 µM (inactive)
- GI50 (NCI-H460): 27.2 µM (inactive)
- GI50 (NCI/ADR-RES): 32.9 µM (inactive)
- GI50 (OVCAR-3): 25.9 µM (inactive)
- GI50 (OVCAR-5): > 100 µM (inactive)
- GI50 (PC-3): 36.7 µM (inactive)
- GI50 (RXF 393): > 100 µM (inactive)
- GI50 (SF-295): 46.2 µM (inactive)
- GI50 (SK-MEL-28): 74.5 µM (inactive)
- GI50 (SK-MEL-2): 25.4 µM (inactive)
- GI50 (SK-MEL-5): 22.2 µM (inactive)
- GI50 (SK-OV-3): 38.4 µM (inactive)
- GI50 (SN12C): 50.1 µM (inactive)
- GI50 (SNB-19): 76.4 µM (inactive)
- GI50 (SNB-75): 46.8 µM (inactive)
- GI50 (SW-620): 38.6 µM (inactive)
- GI50 (T47D): 25.6 µM (inactive)
- GI50 (TK-10): 28.7 µM (inactive)
- GI50 (UACC-257): 69.5 µM (inactive)
- GI50 (UO-31): 20.4 µM (inactive)
